Reference: ChEMBL document CHEMBL1201862, “PubChem BioAssay data set” (2004)
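Protocol summary: plate cells (96-well), add compound at 5 concentrations, incubate 48 h, interpolate endpoints linearly. At the GI50, growth is halved.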 Active and inactive are the calls of the source. No stated cut-off is given here; in the data, active = GI50 up to about 1.1 µM and inactive = higher.

Legend:
Experiment in all cases: DTP human tumour cell line panel, 48 h
NCI-H522 = test system: NCI-H522
DMS-273 = test system: DMS-273
ACHN = test system: ACHN
786-0 = test system: 786-0
M19-MEL = test system: M19-MEL
SF-268 = test system: SF-268
HCT-15 = test system: HCT-15
SN12C = test system: SN12C
M14 = test system: M14
TK-10 = test system: TK-10
HT-29 = test system: HT-29
OVCAR-3 = test system: OVCAR-3
A549 = test system: A549
SK-MEL-5 = test system: SK-MEL-5
NCI-H460 = test system: NCI-H460
UACC-257 = test system: UACC-257
KM12 = test system: KM12
COLO 205 = test system: COLO 205
CCRF-CEM = test system: CCRF-CEM
SR = test system: SR
DMS-114 = test system: DMS-114
OVCAR-4 = test system: OVCAR-4
SNB-75 = test system: SNB-75
UACC-62 = test system: UACC-62
HCC 2998 = test system: HCC 2998
A498 = test system: A498
LXFL 529 = test system: LXFL 529
SNB-19 = test system: SNB-19
SF-295 = test system: SF-295
OVCAR-5 = test system: OVCAR-5
SW-620 = test system: SW-620
MOLT-4 = test system: MOLT-4
HL-60 = test system: HL-60
K562 = test system: K562
EKVX = test system: EKVX
U-251 = test system: U-251
SK-MEL-2 = test system: SK-MEL-2
UO-31 = test system: UO-31
Malme-3M = test system: Malme-3M
HOP-62 = test system: HOP-62
HCT-116 = test system: HCT-116
SF-539 = test system: SF-539
SK-MEL-28 = test system: SK-MEL-28
SNB-78 = test system: SNB-78
OVCAR-8 = test system: OVCAR-8
SK-OV-3 = test system: SK-OV-3
NCI-H226 = test system: NCI-H226
NCI-H23 = test system: NCI-H23
DLD-1 = test system: DLD-1
KM-20L2 = test system: KM-20L2
LOX IMVI = test system: LOX IMVI
CAKI-1 = test system: CAKI-1
RPMI-8226 = test system: RPMI-8226
IGROV-1 = test system: IGROV-1
RXF 393 = test system: RXF 393
XF498 = test system: XF498

## CSc1ccc2c(cc1=O)C(NC(=O)c1ccc(OC(C)=O)cc1)CCc1cc(O)c(O)c(O)c1-2 (configuration not stated)
NCI-H522
  GI50: 12.8 µM (inactive)
DMS-273
  GI50: 22.5 µM (inactive)
ACHN
  GI50: 66.8 µM (inactive)
786-0
  GI50: 31 µM (inactive)
M19-MEL
  GI50: 12.8 µM (inactive)
SF-268
  GI50: 42.1 µM (inactive)
HCT-15
  GI50: 18.8 µM
SN12C
  GI50: 16.3 µM (inactive)
M14
  GI50: 16.7 µM (inactive)
TK-10
  GI50: 91.2 µM (inactive)
HT-29
  GI50: 19.6 µM (inactive)
OVCAR-3
  GI50: 20.8 µM (inactive)
A549
  GI50: 33.9 µM (inactive)
SK-MEL-5
  GI50: 16 µM (inactive)
NCI-H460
  GI50: 23.2 µM (inactive)
UACC-257
  GI50: 19.5 µM (inactive)
KM12
  GI50: 32 µM (inactive)
COLO 205
  GI50: 16.9 µM (inactive)
CCRF-CEM
  GI50: 3.43 µM (inactive)
SR
  GI50: 7.94 µM (inactive)
DMS-114
  GI50: 19.8 µM (inactive)
OVCAR-4
  GI50: 9.02 µM (inactive)
SNB-75
  GI50: 20 µM (inactive)
UACC-62
  GI50: 18.5 µM (inactive)
HCC 2998
  GI50: 74.1 µM (inactive)
A498
  GI50: 57 µM (inactive)
LXFL 529
  GI50: 17.3 µM (inactive)
SNB-19
  GI50: 35.2 µM (inactive)
SF-295
  GI50: 19.1 µM (inactive)
OVCAR-5
  GI50: 25.1 µM (inactive)
SW-620
  GI50: 13.1 µM (inactive)
MOLT-4
  GI50: 5.11 µM (inactive)
HL-60
  GI50: 3.31 µM (inactive)
K562
  GI50: 1.95 µM (inactive)
EKVX
  GI50: 20.5 µM (inactive)
U-251
  GI50: 20.4 µM (inactive)
SK-MEL-2
  GI50: 16.2 µM (inactive)
UO-31
  GI50: 35.6 µM (inactive)
Malme-3M
  GI50: 48.9 µM (inactive)
HOP-62
  GI50: 26.9 µM (inactive)
HCT-116
  GI50: 17.3 µM (inactive)
SF-539
  GI50: 19.1 µM (inactive)
SK-MEL-28
  GI50: 61.7 µM (inactive)
SNB-78
  GI50: 30.8 µM (inactive)
OVCAR-8
  GI50: 25.1 µM (inactive)
SK-OV-3
  GI50: 38.4 µM (inactive)
NCI-H226
  GI50: 20.9 µM (inactive)
NCI-H23
  GI50: 25.3 µM (inactive)
DLD-1
  GI50: 17.8 µM (inactive)
KM-20L2
  GI50: 37.5 µM (inactive)

## Oc1cccnc1/C=N/OCc1ccccc1
NCI-H522
  GI50: > 100 µM (inactive)
DMS-273
  GI50: > 100 µM (inactive)
ACHN
  GI50: > 100 µM (inactive)
786-0
  GI50: > 100 µM (inactive)
M19-MEL
  GI50: > 100 µM (inactive)
SF-268
  GI50: > 100 µM (inactive)
HCT-15
  GI50: > 100 µM
SN12C
  GI50: 97.1 µM (inactive)
M14
  GI50: > 100 µM (inactive)
TK-10
  GI50: > 100 µM (inactive)
HT-29
  GI50: > 100 µM (inactive)
OVCAR-3
  GI50: > 100 µM (inactive)
A549
  GI50: > 100 µM (inactive)
SK-MEL-5
  GI50: > 100 µM (inactive)
NCI-H460
  GI50: > 100 µM (inactive)
LOX IMVI
  GI50: > 100 µM (inactive)
UACC-257
  GI50: > 100 µM (inactive)
CAKI-1
  GI50: > 100 µM (inactive)
KM12
  GI50: > 100 µM (inactive)
RPMI-8226
  GI50: > 100 µM (inactive)
COLO 205
  GI50: > 100 µM (inactive)
CCRF-CEM
  GI50: > 100 µM (inactive)
IGROV-1
  GI50: > 100 µM (inactive)
DMS-114
  GI50: > 100 µM (inactive)
SNB-75
  GI50: > 100 µM (inactive)
UACC-62
  GI50: > 100 µM (inactive)
HCC 2998
  GI50: > 100 µM (inactive)
A498
  GI50: > 100 µM (inactive)
LXFL 529
  GI50: > 100 µM (inactive)
SNB-19
  GI50: > 100 µM (inactive)
SF-295
  GI50: > 100 µM (inactive)
OVCAR-5
  GI50: > 100 µM (inactive)
SW-620
  GI50: > 100 µM (inactive)
MOLT-4
  GI50: > 100 µM (inactive)
HL-60
  GI50: > 100 µM (inactive)
RXF 393
  GI50: 23.6 µM (inactive)
K562
  GI50: > 100 µM (inactive)
EKVX
  GI50: > 100 µM (inactive)
U-251
  GI50: > 100 µM (inactive)
SK-MEL-2
  GI50: > 100 µM (inactive)
UO-31
  GI50: 68.2 µM (inactive)
Malme-3M
  GI50: > 100 µM (inactive)
HOP-62
  GI50: > 100 µM (inactive)
HCT-116
  GI50: > 100 µM (inactive)
SF-539
  GI50: > 100 µM (inactive)
XF498
  GI50: 29 µM (inactive)
SNB-78
  GI50: > 100 µM (inactive)
OVCAR-8
  GI50: > 100 µM (inactive)
SK-OV-3
  GI50: > 100 µM (inactive)
NCI-H226
  GI50: > 100 µM (inactive)
DLD-1
  GI50: > 100 µM (inactive)
KM-20L2
  GI50: > 100 µM (inactive)
